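All cell lines were grown in 96-well plates and treated with compound for 48 hours. At the TGI there is no net growth.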
Experiments:
Assay in all cases: growth of human tumour cells (NCI), 48 h
[1] = system: OVCAR-8 ovarian
[2] = system: U251 CNS
[3] = system: HCT-116 colon
[4] = system: SF-539 CNS
[5] = system: NCI-H23 lung
[6] = system: MOLT-4 leukemia
[7] = system: MDA-N
[8] = system: RPMI-8226 leukemia
[9] = system: SK-MEL-5 melanoma
[10] = system: DU-145 prostate
[11] = system: OVCAR-5 ovarian
[12] = system: K-562 leukemia
[13] = system: IGROV1 ovarian
[14] = system: MALME-3M melanoma
[15] = system: BT-549 breast
[16] = system: SW-620 colon
[17] = system: HOP-92 NSCLC
[18] = system: SK-OV-3 ovarian
[19] = system: SNB-19 CNS
[20] = system: COLO 205 colon
[21] = system: NCI-H522 lung
[22] = system: HS 578T breast
[23] = system: SN12C renal
[24] = system: PC-3 prostate
[25] = system: SF-268 CNS
[26] = system: MCF7 breast
[27] = system: A549 NSCLC
[28] = system: MDA-MB-231 breast
[29] = system: ACHN renal
[30] = system: NCI/ADR-RES ovarian
[31] = system: RXF 393 renal
[32] = system: HT29 colon
[33] = system: OVCAR-4 ovarian
[34] = system: M14 melanoma
[35] = system: SNB-75 CNS
[36] = system: HL-60(TB) leukemia
[37] = system: CAKI-1 renal
[38] = system: SF-295 CNS
[39] = system: TK-10 renal
[40] = system: UACC-257 melanoma
[41] = system: UACC-62 melanoma
[42] = system: MDA-MB-435
[43] = system: HCT-15 colon
[44] = system: OVCAR-3 ovarian
[45] = system: KM12 colon
[46] = system: NCI-H460 lung
[47] = system: 786-0 renal
[48] = system: NCI-H226 lung
[49] = system: HOP-62 NSCLC
[50] = system: EKVX NSCLC
[51] = system: A498 renal
[52] = system: SK-MEL-2 melanoma
[53] = system: LOX IMVI melanoma
[54] = system: T-47D breast
[55] = system: SK-MEL-28 melanoma
[56] = system: CCRF-CEM leukemia
[57] = system: HCC-2998 colon

O=[N+]([O-])c1cccc2nc3ccccc3c(NCCCN3CCCCC3)c12
TGI [1]: 0.118 µM | TGI [2]: 0.0734 µM | TGI [3]: 0.0629 µM | TGI [4]: 0.0451 µM | TGI [5]: 0.0231 µM | TGI [6]: 0.0681 µM | TGI [7]: 0.0217 µM | TGI [8]: 0.0611 µM | TGI [9]: 0.0221 µM | TGI [10]: 0.0295 µM | TGI [11]: 0.0669 µM | TGI [12]: 1.12 µM | TGI [13]: 0.0758 µM | TGI [14]: 0.038 µM | TGI [15]: 0.114 µM | TGI [16]: 5.89 µM | TGI [17]: 0.0434 µM | TGI [18]: 0.1 µM | TGI [19]: 0.444 µM | TGI [20]: 0.0201 µM | TGI [21]: 0.0236 µM | TGI [22]: 0.0966 µM | TGI [23]: 0.0443 µM | TGI [24]: 0.0305 µM | TGI [25]: 0.199 µM | TGI [26]: 0.11 µM | TGI [27]: 0.115 µM | TGI [28]: 0.0509 µM | TGI [29]: 0.0472 µM | TGI [30]: 4.9 µM | TGI [31]: 0.0246 µM | TGI [32]: 0.326 µM | TGI [33]: 0.031 µM | TGI [34]: 0.0232 µM | TGI [35]: 0.0497 µM | TGI [36]: 0.511 µM | TGI [37]: 0.496 µM | TGI [38]: 0.0605 µM | TGI [39]: 0.0712 µM | TGI [40]: 0.0446 µM | TGI [41]: 0.0298 µM | TGI [42]: 0.0227 µM | TGI [43]: 0.109 µM | TGI [44]: 0.026 µM | TGI [45]: 0.112 µM | TGI [46]: < 0.0134 µM | TGI [47]: 0.0492 µM | TGI [48]: 0.0553 µM | TGI [49]: 0.0433 µM | TGI [50]: 0.0401 µM | TGI [51]: < 0.0219 µM | TGI [52]: 0.0296 µM | TGI [53]: 0.0562 µM | TGI [54]: 0.182 µM

NC(=S)NS(=O)(=O)c1ccc(F)cc1F
TGI [1]: > 100 µM | TGI [2]: > 100 µM | TGI [3]: > 100 µM | TGI [4]: > 100 µM | TGI [5]: > 100 µM | TGI [6]: > 100 µM | TGI [7]: > 100 µM | TGI [8]: > 100 µM | TGI [9]: > 100 µM | TGI [10]: > 100 µM | TGI [11]: > 100 µM | TGI [12]: > 100 µM | TGI [13]: > 100 µM | TGI [14]: > 100 µM | TGI [15]: > 100 µM | TGI [16]: > 100 µM | TGI [17]: > 100 µM | TGI [18]: > 100 µM | TGI [19]: > 100 µM | TGI [20]: > 100 µM | TGI [21]: > 100 µM | TGI [22]: > 100 µM | TGI [23]: > 100 µM | TGI [24]: > 100 µM | TGI [25]: > 100 µM | TGI [26]: > 100 µM | TGI [27]: > 100 µM | TGI [28]: > 100 µM | TGI [29]: > 100 µM | TGI [30]: > 100 µM | TGI [31]: > 100 µM | TGI [55]: > 100 µM | TGI [32]: > 100 µM | TGI [56]: > 100 µM | TGI [33]: > 100 µM | TGI [34]: > 100 µM | TGI [35]: > 100 µM | TGI [36]: > 100 µM | TGI [37]: > 100 µM | TGI [38]: > 100 µM | TGI [39]: > 100 µM | TGI [40]: > 100 µM | TGI [41]: > 100 µM | TGI [42]: > 100 µM | TGI [43]: > 100 µM | TGI [44]: > 100 µM | TGI [45]: > 100 µM | TGI [46]: > 100 µM | TGI [47]: > 100 µM | TGI [48]: > 100 µM | TGI [49]: > 100 µM | TGI [50]: > 100 µM | TGI [51]: > 100 µM | TGI [52]: > 100 µM | TGI [53]: > 100 µM | TGI [54]: > 100 µM | TGI [57]: > 100 µM
